# Target: T1, androgen receptor (AR) splicing variant AR-v7 (Homo sapiens, UniProt P10275)
# T1 construct: The degradation activity of compounds on AR-v7 in 22RV1 cells; host or cells: 22RV1 cells
# T1 sequence (P10275 1-644 isoform P10275-3): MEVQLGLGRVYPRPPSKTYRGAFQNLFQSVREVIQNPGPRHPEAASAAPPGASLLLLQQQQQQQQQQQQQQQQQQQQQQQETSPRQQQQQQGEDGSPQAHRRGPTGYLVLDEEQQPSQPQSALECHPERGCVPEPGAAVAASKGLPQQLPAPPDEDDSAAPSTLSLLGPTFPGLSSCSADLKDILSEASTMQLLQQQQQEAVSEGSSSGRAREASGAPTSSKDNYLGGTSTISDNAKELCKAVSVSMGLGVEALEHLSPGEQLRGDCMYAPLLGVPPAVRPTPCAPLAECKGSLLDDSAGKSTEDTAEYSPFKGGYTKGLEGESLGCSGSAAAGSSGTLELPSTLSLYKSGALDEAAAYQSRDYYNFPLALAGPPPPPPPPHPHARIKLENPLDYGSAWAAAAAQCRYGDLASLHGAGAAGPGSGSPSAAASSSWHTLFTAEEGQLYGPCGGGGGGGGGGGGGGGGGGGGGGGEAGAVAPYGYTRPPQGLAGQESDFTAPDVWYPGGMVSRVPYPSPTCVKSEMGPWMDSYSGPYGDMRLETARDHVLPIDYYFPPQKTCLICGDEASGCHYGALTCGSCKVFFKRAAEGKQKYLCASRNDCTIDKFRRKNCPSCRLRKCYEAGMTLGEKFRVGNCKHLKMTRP
# Assay: Degradation activity on androgen receptor splicing variant AR-v7 in 22RV1 cells (ELISA)
# Type: cell-based
# Settings: AR-v7 degradation in 22RV1 cells, 48 h
Structure (SMILES),DC50 (class symbols),DC50 (numeric values)
CC(C)(c1ccc(OCc2ccnc(NS(C)(=O)=O)n2)cc1)c1ccc(OC2CCN(CC3CCN(CC4CCN(CC5CN(c6ccc7c(c6)C(=O)N(C6CCC(=O)NC6=O)C7=O)C5)CC4)CC3)CC2)cc1 (stereo not shown) [Example 12],1 to 5 µM,–
"CC(C)(c1ccc(OCCCCCCCCOCCCCNc2ccc3c(c2)C(=O)N(C2CCC(=O)NC2=O)C3=O)cc1)c1ccc(OCc2ccnc(N3CCCS3(=O)=O)n2)cc1 (stereo not shown) [Example 27, 5-((4-((8-(4-(2-(4-((2-(1,1-dioxoisothiazolidin-2-yl)pyrimidin-4-yl)methoxy)phenyl)propan-2-yl)phenoxy)octyl)oxy)butyl)amino)-2-(2,6-dioxopiperidin-3-yl)isoindolin-1,3-dione]",–,7.58 µM
"CC(C)(c1ccc(OCc2ccnc(N3CC4(COC4)C3)n2)cc1)c1ccc(O[C@H]2C[C@@H](Nc3ccc4c(c3)C(=O)N(C3CCC(=O)NC3=O)C4)C2)cc1 (stereo partly shown) [Example 92, 3-(6-(((1s,3s)-3-(4-(2-(4-((2-(2-oxa-6-azaspiro[3.3]heptane-6-yl)pyrimidin-4-yl)methoxy)phenyl)propan-2-yl)phenoxy)cyclobutyl)amino)-1-oxoisoindolin-2-yl)piperidin-2,6-dione]",0.101 to 1 µM,–
CC(C)(c1ccc(OCc2ccnc(OC3CCNCC3)n2)cc1)c1ccc(O[C@H]2C[C@@H](Nc3ccc4c(c3)C(=O)N(C3CCC(=O)NC3=O)C4=O)C2)cc1 (stereo partly shown) [Example 236],0.011 to 0.1 µM,–
"CC(COc1ccc(C(C)(C)c2ccc(OCc3ccnc(N4CC5(COC5)C4)n3)cc2)cc1)Nc1ccc2c(c1)C(=O)N(C1CCC(=O)NC1=O)C2=O (stereo not shown) [Example 151, 5-((1-(4-(2-(4-((2-(2-oxa-6-azaspiro[3.3]heptan-6-yl)pyrimidin-4-yl)methoxy)phenyl)propan-2-yl)phenoxy)propan-2-yl)amino)-2-(2,6-dioxopiperidin-3-yl)isoindolin-1,3-dione]",0.011 to 0.1 µM,–
"CC(C)(c1ccc(OCc2ccnc(NS(C)(=O)=O)n2)cc1)c1ccc(OC2CCN(c3ccc4c(c3)C(=O)N(C3CCC(=O)NC3=O)C4=O)CC2)cc1 (stereo not shown) [Example 34, N-(4-((4-(2-(4-((1-(2-(2,6-dioxopiperidin-3-yl)-1,3-dioxoisoindolin-yl)piperidin-4-yl)oxy)phenyl)propan-2-yl)phenoxy)methyl)pyrimidin-2-yl)methanesulfonamide]",–,> 10 µM
"CC(C)(c1ccc(OCc2ccnc(N3CCC4(CC3)CNC4)n2)cc1)c1ccc(O[C@H]2C[C@@H](Nc3ccc4c(c3)C(=O)N(C3CCC(=O)NC3=O)C4=O)C2)cc1 (stereo partly shown) [Example 84, 5-(((1s,3s)-3-(4-(2-(4-((2-(2,7-diazaspiro[3.5]nonan-7-yl)pyrimidin-4-yl)methoxy)phenyl)propan-2-yl)phenoxy)cyclobutyl)amino)-2-(2,6-dioxopiperidin-3-yl)isoindolin-1,3-dione]",0.011 to 0.1 µM,–
CC(C)(c1ccc(Oc2ccc(-n3ccnn3)nn2)cc1)c1ccc(O[C@H]2C[C@H](Nc3ccc4c(c3)C(=O)N(C3CCC(=O)NC3=O)C4=O)C2)cc1 (stereo partly shown) [Example 325],0.011 to 0.1 µM,–
"CC(C)(c1ccc(OCCCCCOCCCOCC2CCN(c3ccc4c(c3)C(=O)N(C3CCC(=O)NC3=O)C4=O)C2)cc1)c1ccc(OCc2ccnc(NS(C)(=O)=O)n2)cc1 (stereo not shown) [Example 52, N-(4-((4-(2-(4-((5-(3-((1-(2-(2,6-dioxopiperidin-3-yl)-1,3-dioxoisoindolin-5-yl)pyrrolidin-3-yl)methoxy)propoxy)pentyl)oxy)phenyl)propan-2-yl)phenoxy)methyl)pyrimidin-2-yl)methanesulfonamide]",–,> 10 µM
O=C1CCC(N2C(=O)c3ccc(N[C@H]4C[C@H](Oc5ccc(Cc6ccc(Oc7cnc(-n8ccnn8)nc7)cc6)cc5)C4)cc3C2=O)C(=O)N1 (stereo partly shown) [Example 520],0.011 to 0.1 µM,–
Cn1nc(C(F)(F)F)cc1-c1nccc(COc2ccc(C(C)(C)c3ccc(O[C@H]4C[C@@H](Nc5ccc6c(c5)C(=O)N(C5CCC(=O)NC5=O)C6=O)C4)cc3)cc2)n1 (stereo partly shown) [Example 462],0.101 to 1 µM,–
"CC(C)(c1ccc(OCCCCCOc2ccc3c(c2)C(=O)N(C2CCC(=O)NC2=O)C3=O)cc1)c1ccc(OCc2ccnc(NS(C)(=O)=O)n2)cc1 (stereo not shown) [Example 9, N-(4-((4-(2-(4-((5-((2-(2,6-dioxopiperidin-3-yl)-1,3-dioxoisoindolin-5-yl)oxy)pentyl)oxy)phenyl)propan-2-yl)phenoxy)methyl)pyrimidin-2-yl)methanesulfonamide]",1 to 5 µM,–
Cc1cncc(Oc2ccc(C(C)(C)c3ccc(O[C@H]4C[C@@H](Nc5ccc6c(c5)C(=O)N(C5CCC(=O)NC5=O)C6=O)C4)cc3)cc2)n1 (stereo partly shown) [Example 537],0.011 to 0.1 µM,–
CC(=O)c1nccc(COc2ccc(C(C)(C)c3ccc(OC4CCN(c5ccc6c(c5)C(=O)N(C5CCC(=O)NC5=O)C6=O)C4)cc3)cc2)n1 (stereo not shown) [Example 486],0.101 to 1 µM,–
CC(C)(c1ccc(OCc2ccnc(N3CCOCC3)n2)cc1)c1ccc(OC2CC(Nc3ccc4c(c3)C(=O)N(C3CCC(=O)NC3=O)C4=O)C2)cc1 (stereo not shown) [Example 394],0.011 to 0.1 µM,–
CC(C)(c1ccc(OCCCCCCCCOCCCCNc2ccc3c(c2)C(=O)N(C2CCC(=O)NC2=O)C3=O)cc1)c1ccc(OCc2ccnc(Nc3ncco3)n2)cc1 (stereo not shown) [Example 226],–,> 10 µM
"CN1C(=O)CCC(N2C(=O)c3ccc(N[C@H]4C[C@H](Oc5ccc(C(C)(C)c6ccc(OCc7ccnc(N8CC9(COC9)C8)n7)cc6)cc5)C4)cc3C2=O)C1=O (stereo partly shown) [Example 100, 5-((1r,3r)-3-(4-(2-(4-(4-((2-(2-oxa-6-azaspiro[3.3]heptane-6-yl)pyrimidin-4-yl)methoxy)phenyl)propan-2-yl)phenoxy)cyclobutyl)amino)-2-(1-methyl-2,6-dioxopiperidin-3-yl)isoindolin-1,3-dione]",0.101 to 1 µM,–
CC(C)(c1ccc(OCc2ccnc(-c3cc[nH]n3)n2)cc1)c1ccc(O[C@H]2C[C@@H](Nc3ccc4c(c3)C(=O)N(C3CCC(=O)NC3=O)C4=O)C2)cc1 (stereo partly shown) [Example 274],0.011 to 0.1 µM,–
CN1CC[C@@H](Oc2nccc(COc3ccc(C(C)(C)c4ccc(O[C@H]5C[C@@H](Nc6ccc7c(c6)C(=O)N(C6CCC(=O)NC6=O)C7=O)C5)cc4)cc3)n2)C1 (stereo partly shown) [Example 243],< 0.01 µM,–
"CC(C)(c1ccc(C#CCNc2ccc3c(c2)C(=O)N(C2CCC(=O)NC2=O)C3=O)cc1)c1ccc(OCc2ccnc(N3CC4(COC4)C3)n2)cc1 (stereo not shown) [Example 309, 5-((3-(4-(2-(4-((2-(2-oxa-6-azaspiro[3.3]heptan-6-yl)pyrimidin-4-yl)methoxy)phenyl)propan-2-yl)phenyl)prop-2-yn-1-yl)amino)-2-(2,6-dioxopiperidin-3-yl)isoindolin-1,3-dione]",0.011 to 0.1 µM,–
"CC(C)(c1ccc(Oc2ccnc(-n3ccnn3)c2)cc1)c1ccc(O[C@H]2C[C@H](Nc3ccc4c(c3)C(=O)N(C3CCC(=O)NC3=O)C4=O)C2)cc1 (stereo partly shown) [Example 163, 5-((1r,3r)-3-(4-(2-(2-(4-((1H-1,2,3-triazol-2-yl)pyridin-4-yl)oxy)phenyl)propan-2-ylphenoxy)cyclobutyl)amino)-2-(2,6-dioxopiperidin-3-yl)isoindolin-1,3-dione]",0.011 to 0.1 µM,–
"CC(=O)c1nccc(COc2ccc(C(C)(C)c3ccc(OC[C@@H]4CCCN4c4ccc5c(c4)C(=O)N(C4CCC(=O)NC4=O)C5=O)cc3)cc2)n1 (stereo partly drawn) [Example 145, 5-((S)-2-((4-(2-(4-((2-acetylpyrimidin-4-yl)methoxy)phenyl)propan-2-yl)phenoxy)methyl)pyrrolidin-1-yl)-2-(2,6-dioxopiperidin-3-yl)isoindolin-1,3-dione]",0.101 to 1 µM,–
CN1CCN(c2ncc(COc3ccc(C(C)(C)c4ccc(OC5CC(Nc6ccc7c(c6)C(=O)N(C6CCC(=O)NC6=O)C7=O)C5)cc4)cc3)cn2)CC1 (stereo not shown) [Example 534],0.011 to 0.1 µM,–
C[C@@H]1CN(C)[C@@H](C)CN1c1nccc(COc2ccc(C(C)(C)c3ccc(O[C@H]4C[C@@H](Nc5ccc6c(c5)C(=O)N(C5CCC(=O)NC5=O)C6=O)C4)cc3)cc2)n1 (stereo partly shown) [Example 412],0.011 to 0.1 µM,–
"CC(C)(c1ccc(OCc2ccnc(N3CC4(COC4)C3)n2)cc1)c1ccc(OC2CCCCC2Nc2ccc3c(c2)C(=O)N(C2CCC(=O)NC2=O)C3=O)cc1 (stereo not shown) [Example 569, 5-((2-(4-(2-(4-((2-(2-oxa-6-azaspiro[3.3]heptan-6-yl)pyrimidin-4-yl)methoxy)phenyl)propan-2-yl)phenoxy)cyclohexyl)amino)-2-(2,6-dioxopiperidin-3-yl)isoindolin-1,3-dione]",1 to 5 µM,–
"CC(C)(c1ccc(OCCCNc2ccc3c(c2)C(=O)N(C2CCC(=O)NC2=O)C3=O)cc1)c1ccc(OCc2ccnc(NS(C)(=O)=O)n2)cc1 (stereo not shown) [Example 37, N-(4-((4-(2-(4-(3-((2-(2,6-dioxopiperidin-3-yl)-1,3-dioxoisoindolin-5-yl)amino)propoxy)phenyl)propan-2-yl)phenoxy)methyl)pyrimidin-2-yl)methanesulfonamide]",1 to 5 µM,–
CC(C)(c1ccc(OCc2nc(-n3ccnn3)ccc2F)cc1)c1ccc(O[C@H]2C[C@H](Nc3ccc4c(c3)C(=O)N(C3CCC(=O)NC3=O)C4=O)C2)cc1 (stereo partly shown) [Example 285],0.011 to 0.1 µM,–
CN(C)C1CCCN(c2nccc(COc3ccc(C(C)(C)c4ccc(O[C@H]5C[C@@H](Nc6ccc7c(c6)C(=O)N(C6CCC(=O)NC6=O)C7=O)C5)cc4)cc3)n2)C1 (stereo partly shown) [Example 404],0.011 to 0.1 µM,–

# — US20250051347A1, “BIFUNCTIONAL CHIMERIC HETEROCYCLIC COMPOUND AND USE THEREOF AS ANDROGEN RECEPTOR DEGRADER” (Hinova Pharmaceuticals, Inc., priority 2021, published 2025)
